We go through one molecule from article PMC9021288 (Nature Communications, 2022).

Each structure is given as a SMILES string. Several values for one entry are separate records, joined by “and”; a condition that tells them apart may be missing. Identical values can stand only once.

The test system of one series is AcAS (PF3D7_0627800). Briefly: Cellular thermal shift assay on parasite lysate. Format: binding, Plasmodium falciparum. Conditions: 1 µM; for AcAS band intensity normalized to DMSO at 37 °C: listed as iPanAm. The protocol:
A cellular thermal shift assay (CETSA) was performed on infected RBCs or parasite lysates as described previously.
For a CETSA on parasite lysates, synchronized trophozoite cultures (ACS11-tagged parasites) were treated with 0.1% saponin to lyse the RBCs, and washed three times in PBS. Subsequently, parasite pellets were resuspended in 1× lysis buffer and subjected to three flash-freeze-thaw cycles using liquid nitrogen, followed by mechanical shearing using a syringe with a 25 G and a 30 G needle. Samples were spun down at 18,000 g for 20 min at 4 °C. The supernatant was diluted to 2.1 mg/ml protein concentration, and 100 µl was added to each PCR tube containing 1 µl of the compound at a 100× concentration (final concentration of 1 µM). Samples were incubated for 30 min at room temperature, subjected to a thermal gradient for 3 min on a pre-heated PCR machine, followed by 4 °C for 3 min. Samples were spun down at 18,000 g for 20 min at 4 °C and the soluble fraction was flash-frozen in liquid nitrogen and stored at −80 °C.
Samples were loaded on an 8% SDS-Page gel (Genscript) with 4×10^6 infected RBCs or 50 µg protein for the parasite lysate approach. Proteins were transferred to a nitrocellulose membrane that was blocked with 5% skim milk (Sigma) in PBS overnight and incubated with rabbit antiserum against AcAS (1:1000) for 1 h. Subsequently, membranes were washed three times with PBS-Tween for 5 min, followed by incubation with secondary horseradish peroxide (HRP)-conjugated goat anti-rabbit antibodies (Dako P0448, 1:1000) for 1 h. Blots were then washed three times with PBS-Tween for 5 min and twice with PBS. Following a 5-min incubation with Clarity Max Western ECL Substrate (BioRad), protein blots were imaged using the ImageQuant LAS4000 (GE Healthcare). The band intensity was quantified using Fiji software.

A further series in a line: Renal excretion in rats. It is filed as in vivo, rat. The protocol: A blood sample from the saphenous vein was collected into heparinized capillary tubes at multiple intervals between 0.25 and 24 h after dosing. Subsequently, samples were spun down at 1640 g for 5-10 min at 4 °C within 30 min after collection and plasma was collected. […] Urine was collected following an intravenous dose in both rat and dog, allowing renal clearance to be estimated. Human renal clearance was estimated from dog renal clearance as previously described[40] and other human PK parameters were predicted using allometric scaling and/or in vitro clearance data. PK parameters were calculated by naïve pooled approach using WinNonLin software (Phoenix, version 6.3).

Another series can be described thus: 3-day MTD2 rat study. It is filed as in vivo, Wistar Han rats. Conditions: 300, 600, 1000 mg/kg/day, three days. An excerpt:
See the summary of the study design in Supplementary Table 31. Nine-week-old Wistar (Crl:WI (Han)) rats were obtained from Charles River Laboratories (Domaine des Oncins, Saint-Germain-Nuelles, France). […] Animals were examined daily for any altered clinical signs, body weights, and food consumption. Blood samples were taken at different timepoints after the test item administration, and toxicokinetic exposure assessed under the defined experimental conditions and analyzed using Phoenix (version 6.4 and 1.4) (Supplementary Table 32). Measurements included hematology and clinical chemistry measurements. Animals were euthanized and necropsied at the end of the dosing period. At necropsy, major organ systems and tissues were collected and weighed and then examined for gross lesions as well as for microscopic changes.

Series [1] in a line: Population PK model in NSG mice. It is filed as in vivo, female NSG mice. The note with it: population PK model estimate. Here is the method: The experimental designs are summarized in Supplementary Table 30. […] Samples were processed under liquid-liquid extraction methods and analyzed by LC-MS/MS for quantitation in a Waters UPLC-TQD (Micromass, Manchester, UK).
Data preparation, exploration and model pre- and postprocessing were performed using R (version 3.6.3) and R package IQRtools (version 1.2.1 IntiQuan GmbH). Non-linear mixed-effects (NLME) modeling was used to estimate the PK and PD parameters using Monolix (Lixoft version MLX2018R2). The population PKPD model was developed with a two-stage approach: first, a population PK model was determined; then, the individual PK parameters were used as regression parameters and the PD parameters were estimated. The PD model consists of the balance between a parasite net growth rate and a drug killing rate. […] The growth rate of log-transformed parasite concentration was fixed at 0.03 /h based on prior experiments but estimating growth rate interindividual variability. Different Hill coefficients were tested.

As to `C[C@@H](CNC(=O)[C@H](O)C(C)(C)CO)NC(=O)c1cc(F)c(F)cc1F` [MMV693183], in the series with AcAS (PF3D7_0627800) (37 °C), the “AcAS band intensity normalized to DMSO at 37 °C” value (“AcAS band intensity normalized” for short) is 134.836. The “AcAS band intensity normalized” value in the series on AcAS (PF3D7_0627800) (42 °C) was 174.374. In addition, the “AcAS band intensity normalized” value with AcAS (PF3D7_0627800) (47 °C) amounted to 76.9786. The “AcAS band intensity normalized” value in the series with AcAS (PF3D7_0627800) (52 °C) is 24.7861. In addition, in the series on AcAS (PF3D7_0627800) (30 min, parasite lysate), the AcAS thermal stability entry is “neither the parent compound MMV693183 nor its derivative 4’P-MMV693183 affected AcAS stability”. The molecule also yielded a Urine fraction in the series “Renal excretion in rats” (Mean) of 0.36. Also, the “Observed renal plasma clearance” value in “Renal excretion in rats” (Rat) is 7.7 mL/min/kg. For the same molecule, the “Concentration corrected for dilution” value in the series “Renal excretion in rats” (rat urine after IV dosing, 400x diluted samples, individual rats R4, R5, R6) was 27920.0 ng/mL and 106400.0 ng/mL and 15600.0 ng/mL. Further, the “drug eliminated in urine” value in the series “Renal excretion in rats” (rats, i.v. 3 mg/kg) is 36-40%. Further, in the series “3-day MTD2 rat study”, the toxicity entry is reported as “no relevant toxicity was observed”. In series [1], the “CL, apparent clearance” value is 1.25 L/h; the “Tk0, absorption time” value is 0.364 h; the “Vc, apparent central volume” value was 2.25 L; the “Vp1, apparent peripheral volume” value was 799 L. In series [1], the “Vp2, apparent second peripheral volume” value is given as 1.81 L.
